Data reported in ChEMBL document CHEMBL3734705, “Synthesis and in vitro cytotoxicity of novel C-12 substituted-14-deoxy-andrographolide derivatives as potent anti-cancer agents” (2015).

Legend:
NCI-H460 [1] = test: Cytotoxicity against human NCI-H460 cells assessed as growth level at 10 uM after 48 hrs by SRB assay; format: functional
MCF7 [2] = test: Cytotoxicity against human MCF7 cells assessed as growth inhibition at 10 uM after 48 hrs by SRB assay; format: functional; settings: MCF7, 48 h, read-out: GI
[3] = Cytotoxicity against human HCC2998 cells assessed as growth level at 10 uM after 48 hrs by SRB assay; format: functional, HCC 2998
[4] = Cytotoxicity against human HL-60(TB) cells assessed as growth level at 10 uM after 48 hrs by SRB assay; format: functional
SK-MEL-5 = test: Cytotoxicity against human SK-MEL-5 cells assessed as growth level at 10 uM after 48 hrs by SRB assay; format: functional
[5] = Cytotoxicity against human SNB75 cells assessed as growth inhibition at 10 uM after 48 hrs by SRB assay; format: functional; settings: SNB-75, 48 h, read-out: GI
[6] = Cytotoxicity against human HCT15 cells assessed as growth level at 10 uM after 48 hrs by SRB assay; format: functional, HCT-15
[7] = Cytotoxicity against human UACC257 cells assessed as growth inhibition at 10 uM after 48 hrs by SRB assay; format: functional; settings: UACC-257, 48 h, read-out: GI
[8] = Cytotoxicity against human RXF393 cells assessed as growth inhibition at 10 uM after 48 hrs by SRB assay; format: functional; settings: RXF 393, 48 h, read-out: GI
[9] = Cytotoxicity against human DU145 cells assessed as growth inhibition at 10 uM after 48 hrs by SRB assay; format: functional; settings: DU-145, 48 h, read-out: GI
[10] = Cytotoxicity against human HCC2998 cells assessed as growth inhibition at 10 uM after 48 hrs by SRB assay; format: functional; settings: HCC 2998, 48 h, read-out: GI
T47D = test: Cytotoxicity against human T47D cells assessed as growth level at 10 uM after 48 hrs by SRB assay; format: functional
MDA-MB-231 [11] = test: Cytotoxicity against human MDA-MB-231 cells assessed as growth inhibition at 10 uM after 48 hrs by SRB assay; format: functional; settings: MDA-MB-231, 48 h, read-out: GI
SK-MEL-28 = test: Cytotoxicity against human SK-MEL-28 cells assessed as growth level at 10 uM after 48 hrs by SRB assay; format: functional
[12] = Cytotoxicity against human SKOV3 cells assessed as growth inhibition at 10 uM after 48 hrs by SRB assay; format: functional; settings: SK-OV-3, 48 h, read-out: GI
NCI-H23 = test: Cytotoxicity against human NCI-H23 cells assessed as growth level at 10 uM after 48 hrs by SRB assay; format: functional
MCF7 [13] = test: Cytotoxicity against human MCF7 cells assessed as growth level at 10 uM after 48 hrs by SRB assay; format: functional
CCRF-CEM = test: Cytotoxicity against human CCRF-CEM cells assessed as growth level at 10 uM after 48 hrs by SRB assay; format: functional
U-251 = test: Cytotoxicity against human U251 cells assessed as growth inhibition at 10 uM after 48 hrs by SRB assay; format: functional; settings: U-251, 48 h, read-out: GI
[14] = Cytotoxicity against human UACC62 cells assessed as growth level at 10 uM after 48 hrs by SRB assay; format: functional, UACC-62
A498 [15] = test: Cytotoxicity against human A498 cells assessed as growth level at 10 uM after 48 hrs by SRB assay; format: functional
[16] = Cytotoxicity against human IGROV1 cells assessed as growth level at 10 uM after 48 hrs by SRB assay; format: functional, IGROV-1
NCI-H460 [17] = test: Cytotoxicity against human NCI-H460 cells assessed as growth inhibition at 10 uM after 48 hrs by SRB assay; format: functional; settings: NCI-H460, 48 h, read-out: GI
[18] = Cytotoxicity against human SF295 cells assessed as growth inhibition at 10 uM after 48 hrs by SRB assay; format: functional; settings: SF-295, 48 h, read-out: GI
[19] = Cytotoxicity against human SF539 cells assessed as growth inhibition at 10 uM after 48 hrs by SRB assay; format: functional; settings: SF-539, 48 h, read-out: GI
NCI-H226 = test: Cytotoxicity against human NCI-H226 cells assessed as growth inhibition at 10 uM after 48 hrs by SRB assay; format: functional; settings: NCI-H226, 48 h, read-out: GI
[20] = Cytotoxicity against human COLO205 cells assessed as growth inhibition at 10 uM after 48 hrs by SRB assay; format: functional; settings: COLO 205, 48 h, read-out: GI
[21] = Cytotoxicity against human OVCAR4 cells assessed as growth inhibition at 10 uM after 48 hrs by SRB assay; format: functional; settings: OVCAR-4, 48 h, read-out: GI
[22] = Cytotoxicity against human SKOV3 cells assessed as growth level at 10 uM after 48 hrs by SRB assay; format: functional, SK-OV-3
SN12C [23] = test: Cytotoxicity against human SN12C cells assessed as growth level at 10 uM after 48 hrs by SRB assay; format: functional
MDA-MB-231 [24] = test: Cytotoxicity against human MDA-MB-231 cells assessed as growth level at 10 uM after 48 hrs by SRB assay; format: functional
[25] = Cytotoxicity against human OVCAR8 cells assessed as growth inhibition at 10 uM after 48 hrs by SRB assay; format: functional; settings: OVCAR-8, 48 h, read-out: GI
A498 [26] = test: Cytotoxicity against human A498 cells assessed as growth inhibition at 10 uM after 48 hrs by SRB assay; format: functional; settings: A498, 48 h, read-out: GI
ACHN [27] = test: Cytotoxicity against human ACHN cells assessed as growth inhibition at 10 uM after 48 hrs by SRB assay; format: functional; settings: read-out: GI
[28] = Cytotoxicity against human HCT116 cells assessed as growth level at 10 uM after 48 hrs by SRB assay; format: functional, HCT-116
SN12C [29] = test: Cytotoxicity against human SN12C cells assessed as growth inhibition at 10 uM after 48 hrs by SRB assay; format: functional; settings: read-out: GI
[30] = Cytotoxicity against human Caki1 cells assessed as growth level at 10 uM after 48 hrs by SRB assay; format: functional, CAKI-1
Malme-3M = test: Cytotoxicity against human MALME-3M cells assessed as growth inhibition at 10 uM after 48 hrs by SRB assay; format: functional; settings: read-out: GI
[31] = Cytotoxicity against human UACC62 cells assessed as growth inhibition at 10 uM after 48 hrs by SRB assay; format: functional; settings: UACC-62, 48 h, read-out: GI
[32] = Cytotoxicity against human SF268 cells assessed as growth level at 10 uM after 48 hrs by SRB assay; format: functional, SF-268
[33] = Cytotoxicity against human PC3 cells assessed as growth level at 10 uM after 48 hrs by SRB assay; format: functional, PC-3
ACHN [34] = test: Cytotoxicity against human ACHN cells assessed as growth level at 10 uM after 48 hrs by SRB assay; format: functional
[35] = Cytotoxicity against human NCI-ADR-RES cells assessed as growth inhibition at 10 uM after 48 hrs by SRB assay; format: functional; settings: read-out: GI
M14 [36] = test: Cytotoxicity against human M14 cells assessed as growth level at 10 uM after 48 hrs by SRB assay; format: functional
M14 [37] = test: Cytotoxicity against human M14 cells assessed as growth inhibition at 10 uM after 48 hrs by SRB assay; format: functional; settings: M14, 48 h, read-out: GI

C=C1CC[C@@H]2[C@](C)(COC(C)=O)[C@H](OC(C)=O)CC[C@@]2(C)[C@@H]1CC(NCCCCCCCC)C1=CCOC1=O (mixture of isomers)
Activity (NCI-H460 [1]): 52.67%
inhibition of growth at 10 µM (MCF7 [2]): 31.2%
Activity [3]: 91.44%
Activity [4]: 58.93%
Activity (SK-MEL-5): 50.57%
inhibition of growth at 10 µM [5]: 25.4%
Activity [6]: 66.95%
inhibition of growth at 10 µM [7]: 38.9%
inhibition of growth at 10 µM [8]: 14.3%
inhibition of growth at 10 µM [9]: 11.3%
inhibition of growth at 10 µM [10]: 8.56%
Activity (T47D): 57.98%
inhibition of growth at 10 µM (MDA-MB-231 [11]): 29.2%
Activity (SK-MEL-28): 85.58%
inhibition of growth at 10 µM [12]: 22.9%
Activity (NCI-H23): 70.76%
Activity (MCF7 [13]): 68.8%
Activity (CCRF-CEM): 47.26%
inhibition of growth at 10 µM (U-251): 44.5%
Activity [14]: 47.66%
Activity (A498 [15]): 64.34%
Activity [16]: 70.18%
inhibition of growth at 10 µM (NCI-H460 [17]): 47.3%
inhibition of growth at 10 µM [18]: 19%
inhibition of growth at 10 µM [19]: 10.8%
inhibition of growth at 10 µM (NCI-H226): 34.2%
inhibition of growth at 10 µM [20]: 29.2%
inhibition of growth at 10 µM [21]: 47.7%
Activity [22]: 77.13%
Activity (SN12C [23]): 73.09%
Activity (MDA-MB-231 [24]): 70.83%
inhibition of growth at 10 µM [25]: 29%
inhibition of growth at 10 µM (A498 [26]): 35.7%
inhibition of growth at 10 µM (ACHN [27]): 14%
Activity [28]: 35.89%
inhibition of growth at 10 µM (SN12C [29]): 26.9%
Activity [30]: 68.67%
inhibition of growth at 10 µM (Malme-3M): 15.8%
inhibition of growth at 10 µM [31]: 52.3%
Activity [32]: 67.83%
Activity [33]: 33.69%
Activity (ACHN [34]): 85.98%
inhibition of growth at 10 µM [35]: 12.3%
Activity (M14 [36]): 75.91%
inhibition of growth at 10 µM (M14 [37]): 24.1%

C=C1CC[C@@H]2[C@](C)(COC(C)=O)[C@H](OC(C)=O)CC[C@@]2(C)[C@@H]1CC(NCc1ccc(F)cc1)C1=CCOC1=O (mixture of isomers)
Activity (NCI-H460 [1]): 55.22%
inhibition of growth at 10 µM (MCF7 [2]): 83.4%
Activity [3]: 89.3%
Activity [4]: -9.52%
Activity (SK-MEL-5): 11.81%
inhibition of growth at 10 µM [5]: 41.9%
Activity [6]: 37.04%
inhibition of growth at 10 µM [7]: 54.2%
inhibition of growth at 10 µM [8]: 19.4%
inhibition of growth at 10 µM [9]: 30.2%
inhibition of growth at 10 µM [10]: 10.7%
Activity (T47D): 26.6%
inhibition of growth at 10 µM (MDA-MB-231 [11]): 39.1%
Activity (SK-MEL-28): 77.79%
inhibition of growth at 10 µM [12]: 5.68%
Activity (NCI-H23): 57.85%
Activity (MCF7 [13]): 16.58%
Activity (CCRF-CEM): 9.18%
inhibition of growth at 10 µM (U-251): 52%
Activity [14]: 32.2%
Activity (A498 [15]): 51.71%
Activity [16]: 48.35%
inhibition of growth at 10 µM (NCI-H460 [17]): 44.8%
inhibition of growth at 10 µM [18]: 3.87%
inhibition of growth at 10 µM [19]: 35.5%
inhibition of growth at 10 µM (NCI-H226): 59.9%
inhibition of growth at 10 µM [20]: 57.9%
inhibition of growth at 10 µM [21]: 69.1%
Activity [22]: 94.32%
Activity (SN12C [23]): 46.23%
Activity (MDA-MB-231 [24]): 60.86%
inhibition of growth at 10 µM [25]: 81.4%
inhibition of growth at 10 µM (A498 [26]): 48.3%
inhibition of growth at 10 µM (ACHN [27]): 49.1%
Activity [28]: 33.73%
inhibition of growth at 10 µM (SN12C [29]): 53.8%
Activity [30]: 45.98%
inhibition of growth at 10 µM (Malme-3M): 34.9%
inhibition of growth at 10 µM [31]: 67.8%
Activity [32]: 62.59%
Activity [33]: 20.82%
Activity (ACHN [34]): 50.93%
inhibition of growth at 10 µM [35]: 71.8%
Activity (M14 [36]): 37.3%
inhibition of growth at 10 µM (M14 [37]): 62.7%
